Values after ≈ are worked out from the molar mass of the structure shown.
How the values were obtained:
[1] = species: Homo sapiens; test: Selectivity index, ratio of IC50 for recombinant human MAOA to IC50 for recombinant human MAOB
[2] = Effective permeability of the compound at pH 7.4 at 200 uM after 4 hrs by PAMPA-GI assay; type: physicochemical; settings: read-out: Peff
[3] = target: T1, Amine oxidase [flavin-containing] B (Homo sapiens, UniProt P27338); test: biochemical
T1 sequence (P27338 whole entry): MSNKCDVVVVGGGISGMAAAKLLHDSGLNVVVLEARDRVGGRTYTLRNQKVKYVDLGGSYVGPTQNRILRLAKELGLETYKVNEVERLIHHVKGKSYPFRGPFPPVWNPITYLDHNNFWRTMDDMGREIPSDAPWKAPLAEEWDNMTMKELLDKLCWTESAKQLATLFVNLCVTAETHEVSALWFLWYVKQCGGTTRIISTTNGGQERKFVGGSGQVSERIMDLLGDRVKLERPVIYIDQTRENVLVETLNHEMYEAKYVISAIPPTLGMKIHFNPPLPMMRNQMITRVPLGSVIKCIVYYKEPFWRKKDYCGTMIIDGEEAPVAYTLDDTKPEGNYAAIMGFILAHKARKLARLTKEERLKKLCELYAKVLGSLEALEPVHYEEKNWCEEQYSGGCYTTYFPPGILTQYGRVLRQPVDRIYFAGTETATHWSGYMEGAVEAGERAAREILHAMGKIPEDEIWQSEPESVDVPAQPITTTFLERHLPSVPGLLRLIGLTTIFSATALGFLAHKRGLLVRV

[4] = Effective permeability of the compound at pH 7.4 at 200 uM after 4 hrs by PAMPA-BBB assay; type: physicochemical; settings: read-out: Peff
[5] = physchem; settings: phosphate buffer, pH 2
[6] = n-octanol-phosphate buffer distribution coefficient, log D of the compound at pH 2 after 90 mins by shake-flask method; type: physicochemical
[7] = buffer, pH 5.5, […], 500 µM
[8] = n-octanol-phosphate buffer distribution coefficient, log D of the compound at pH 5.5 after 90 mins by shake-flask method; type: physicochemical
[9] = buffer, pH 2, […], 500 µM
[10] = Effective permeability of the compound at pH 5.5 at 200 uM after 4 hrs by PAMPA-GI assay; type: physicochemical; settings: read-out: Peff
[11] = target: T2, Amine oxidase [flavin-containing] A (Homo sapiens, UniProt P21397); test: biochemical
T2 sequence (P21397 whole entry): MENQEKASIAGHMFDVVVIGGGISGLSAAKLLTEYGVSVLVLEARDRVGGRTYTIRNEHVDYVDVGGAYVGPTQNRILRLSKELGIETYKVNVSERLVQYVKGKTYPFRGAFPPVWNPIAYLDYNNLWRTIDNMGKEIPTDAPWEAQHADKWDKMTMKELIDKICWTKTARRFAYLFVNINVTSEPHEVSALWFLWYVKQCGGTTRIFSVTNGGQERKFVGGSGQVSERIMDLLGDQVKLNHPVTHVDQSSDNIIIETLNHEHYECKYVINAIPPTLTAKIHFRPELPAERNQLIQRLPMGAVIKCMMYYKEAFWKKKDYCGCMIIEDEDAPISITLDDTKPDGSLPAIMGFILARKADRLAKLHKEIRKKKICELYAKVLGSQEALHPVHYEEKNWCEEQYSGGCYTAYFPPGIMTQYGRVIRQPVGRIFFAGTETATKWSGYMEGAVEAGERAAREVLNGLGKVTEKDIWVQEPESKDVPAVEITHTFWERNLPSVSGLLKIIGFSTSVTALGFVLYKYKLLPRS

[12] = n-octanol-phosphate buffer distribution coefficient, log D of the compound at pH 7.4 after 90 mins by shake-flask method; type: physicochemical
[13] = buffer, pH 7.4, […], 500 µM
[14] = physchem; settings: phosphate buffer, pH 7.4
[15] = physchem; settings: phosphate buffer, pH 5.5
[16] = Effective permeability of the compound at pH 2 at 200 uM after 4 hrs by PAMPA-GI assay; type: physicochemical; settings: read-out: Peff
[17] = target: T3, Amine oxidase [flavin-containing] A (Rattus norvegicus, UniProt P21396)
T3 sequence (P21396 whole entry): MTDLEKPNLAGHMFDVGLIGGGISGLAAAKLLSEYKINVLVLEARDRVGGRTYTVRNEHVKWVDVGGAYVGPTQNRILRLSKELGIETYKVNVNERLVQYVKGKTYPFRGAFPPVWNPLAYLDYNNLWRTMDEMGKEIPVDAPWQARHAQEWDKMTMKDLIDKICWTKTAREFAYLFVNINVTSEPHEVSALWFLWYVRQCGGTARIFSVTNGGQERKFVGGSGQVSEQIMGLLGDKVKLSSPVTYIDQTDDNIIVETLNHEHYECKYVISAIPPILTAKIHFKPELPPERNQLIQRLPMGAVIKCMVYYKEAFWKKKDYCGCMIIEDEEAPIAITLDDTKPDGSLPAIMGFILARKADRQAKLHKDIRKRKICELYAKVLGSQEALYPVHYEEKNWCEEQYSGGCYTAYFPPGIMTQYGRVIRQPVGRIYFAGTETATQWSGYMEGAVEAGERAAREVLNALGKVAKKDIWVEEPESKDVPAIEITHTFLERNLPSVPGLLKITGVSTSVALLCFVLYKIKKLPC

[18] = target: T4, Amine oxidase [flavin-containing] B (Rattus norvegicus, UniProt P19643); test: Inhibition of MAOB in Sprague-Dawley rat liver mitochondria using p-tyramine as substrate measured for 45 mins in presence of MAOA inhibitor clorgyline by continuous fluorescence-based method
T4 sequence (P19643 whole entry): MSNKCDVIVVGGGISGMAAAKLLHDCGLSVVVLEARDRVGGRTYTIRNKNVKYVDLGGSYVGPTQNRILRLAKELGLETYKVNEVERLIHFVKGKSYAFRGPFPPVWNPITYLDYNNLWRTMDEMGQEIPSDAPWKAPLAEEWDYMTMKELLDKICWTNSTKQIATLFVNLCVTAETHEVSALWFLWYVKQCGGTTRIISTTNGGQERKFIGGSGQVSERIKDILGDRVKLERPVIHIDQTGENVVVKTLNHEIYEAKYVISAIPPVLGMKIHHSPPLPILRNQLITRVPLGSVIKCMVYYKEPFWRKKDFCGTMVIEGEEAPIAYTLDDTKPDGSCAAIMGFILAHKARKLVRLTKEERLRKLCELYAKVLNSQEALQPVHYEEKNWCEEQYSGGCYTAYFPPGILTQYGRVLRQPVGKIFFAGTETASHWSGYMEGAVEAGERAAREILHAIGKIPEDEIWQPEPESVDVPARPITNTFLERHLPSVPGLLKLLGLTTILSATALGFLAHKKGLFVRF

Ratio IC50 [1]	logD at […] [6]	logD at […] [8]	logD at […] [12]	SMILES	Papp at 4 h, 200 µM [2] [×10⁻⁶ cm/s]	Ki [3] [nM]	Papp at 4 h, 200 µM [4] [×10⁻⁶ cm/s]	solubility kinetic at […], 500 µM [5] [µM]	log(Kinetic_solubility) [7]	log(Kinetic_solubility) [9]	Papp at 4 h, 200 µM [10] [×10⁻⁶ cm/s]	IC50 [11] [nM]	log(Kinetic_solubility) [13]	solubility kinetic at […], 500 µM [14] [µM]	solubility kinetic at […], 500 µM [15] [µM]	Papp at 4 h, 200 µM [16] [×10⁻⁶ cm/s]	IC50 [3] [nM]	IC50 [17] [nM]	IC50 [18] [nM]
> 86				O=C(Nc1ccccc1)c1ccc2[nH]ncc2c1															
	2.49	2.54	2.97	Cn1cc2cc(C(=O)Nc3ccc(Cl)c(Cl)c3)ccc2n1	17.6	0.64	29	57.5 (≈ 18.4 µg/mL)	-4.3	-4.24	16.1		-4.25	55.9 (≈ 17.9 µg/mL)	50 (≈ 16 µg/mL)	14.5			
6580				Cn1ncc2cc(C(=O)Nc3ccc(F)c(F)c3)ccc21															
				Cn1ncc2cc(C(=O)Nc3ccc(Cl)c(Cl)c3)ccc21	18.6		22.3	4.07 (≈ 1.3 µg/mL)	-5.52	-5.39	16.8		-5.45	3.51 (≈ 1.12 µg/mL)	3.04 (≈ 0.973 µg/mL)	18.3			
	2.39	2.52		Cn1ncc2cc(C(=O)Nc3ccc(F)c(Cl)c3)ccc21	31.7		37.6	57.5 (≈ 17.5 µg/mL)			29.5			77.4 (≈ 23.5 µg/mL)	69.1 (≈ 21 µg/mL)	27.2			
20				Cn1cc2cc(C(=O)Nc3ccc(F)c(F)c3)ccc2n1															
	-2.46	-0.76	-0.37	COCCc1ccc(OCC(O)CNC(C)C)cc1 (stereo unspecified) [METOPROLOL]															
17100				O=C(Nc1ccc(Cl)c(Cl)c1)c1ccc2[nH]ncc2c1															

SMILES	Ratio IC50 [1]	logD at […] [6]	logD at […] [8]	logD at […] [12]	Papp at 4 h, 200 µM [2] [×10⁻⁶ cm/s]	Ki [3] [nM]	Papp at 4 h, 200 µM [4] [×10⁻⁶ cm/s]	solubility kinetic at […], 500 µM [5] [µM]	log(Kinetic_solubility) [7]	log(Kinetic_solubility) [9]	Papp at 4 h, 200 µM [10] [×10⁻⁶ cm/s]	IC50 [11] [nM]	log(Kinetic_solubility) [13]	solubility kinetic at […], 500 µM [14] [µM]	solubility kinetic at […], 500 µM [15] [µM]	Papp at 4 h, 200 µM [16] [×10⁻⁶ cm/s]	IC50 [3] [nM]	IC50 [17] [nM]	IC50 [18] [nM]
Cn1cc2cc(C(=O)Nc3ccc(F)c(Cl)c3)ccc2n1	70	3.24	2.55	2.64	9.35	3.57	17.2	439 (≈ 133 µg/mL)	-3.38	-3.36	9.11	8.13	-3.36	441 (≈ 134 µg/mL)	421 (≈ 128 µg/mL)	8.16			
O=C(Nc1ccc(F)c(F)c1)c1ccc2[nH]ncc2c1	6290	2.17	1.94		≤ 0.59		8.15	61.1 (≈ 16.7 µg/mL)	-4.2	-4.21	≤ 0.59	6.61	-4.22	60.7 (≈ 16.6 µg/mL)	62.7 (≈ 17.1 µg/mL)	≤ 0.59			
COCCn1ncc2cc(C(=O)Nc3ccc(Cl)c(Cl)c3)ccc21	> 2660					0.48						2870					1.08	> 10000	3.82
